Test results taken from US20090312280A1.

Assays:
Test in all cases: cell survival / MTT combination cytotoxicity
Assay type in all cases: cell-based, human
MDA-MB-231 (Breast) = details: IC50 cytotoxic agent alone / IC50 combination, Compound 1 at 8x EC50 (360 nM)
Colo205 (Colon) = details: Colo205; IC50 cytotoxic agent alone / IC50 combination; Compound 1 at 8x EC50 (360 nM)
PC-3 (Prostate) = details: PC-3; IC50 cytotoxic agent alone / IC50 combination; Compound 1 at 8x EC50 (360 nM)
HT29 (Colon) = details: HT29; IC50 cytotoxic agent alone / IC50 combination; Compound 1 at 8x EC50 (360 nM)
K562 (Leukemia) = details: IC50 cytotoxic agent alone / IC50 combination, Compound 1 at 4x EC50 (180 nM)

CCc1c2c(nc3ccc(O)cc13)-c1cc3c(c(=O)n1C2)COC(=O)[C@]3(O)CC [SN-38]
PF50 (Potentiation Factor50) (MDA-MB-231 (Breast)): 2.4
PF50 (Potentiation Factor50) (Colo205 (Colon)): 2.1
PF50 (Potentiation Factor50) (PC-3 (Prostate)): 1.3
PF50 (Potentiation Factor50) (HT29 (Colon)): 3.7
PF50 (Potentiation Factor50) (K562 (Leukemia)): 1.9

CO[C@@]12[C@H](COC(N)=O)C3=C(C(=O)C(C)=C(N)C3=O)N1C[C@@H]1N[C@@H]12 [Mytomicin C]
PF50 (Potentiation Factor50) (MDA-MB-231 (Breast)): 1.2
PF50 (Potentiation Factor50) (Colo205 (Colon)): 5.3
PF50 (Potentiation Factor50) (HT29 (Colon)): 3.7

N.N.O=C([O-])C1(C(=O)[O-])CCC1.[Pt+2] [Carboplatin]
PF50 (Potentiation Factor50) (MDA-MB-231 (Breast)): 2.55
PF50 (Potentiation Factor50) (Colo205 (Colon)): 5.4
PF50 (Potentiation Factor50) (PC-3 (Prostate)): 3.1
PF50 (Potentiation Factor50) (HT29 (Colon)): 3
PF50 (Potentiation Factor50) (K562 (Leukemia)): 1.9
